# Data: US6500865B1, “Sulfonamide derivatives” (Eli Lilly and Company, priority 1998, dated 2002)
# Biological target: T1, human GluR4B receptor (Homo sapiens, UniProt P48058)
# T1 construct: expressed in transfected cells
# Experiment: potentiation of agonist-induced excitability of human GluR4B receptor expressed in HEK 293 cells
# Assay type: cell-based
# Conditions: human GluR4B expressed in HEK 293 cells; qualitative statement
# Description: The ability of compounds of formula I to potentiate glutamate receptor-mediated response may be determined using fluorescent calcium indicator dyes (Molecular Probes, Eugene, Oreg., Fluo-3) and by measuring glutamate-evoked efflux of calcium into GluR4 transfected HEK293 cells, as described in more detail below.
# In one test, 96 well plates containing confluent monolayers of HEK cells stably expressing human GluR4B (obtained as described in European Patent Application Publication Number EP-A1-583917) are prepared. The tissue culture medium in the wells is then discarded, and the wells are each washed once with 200 μl of buffer (glucose, 10 mM, sodium chloride, 138 mM, magnesium chloride, 1 mM, potassium chloride, 5 mM, calcium chloride, 5 mM, N-[2-hydroxyethyl]-piperazine-N-[2-ethanesulfonic acid], 10 mM, to pH 7.1 to 7.3). […]
# Each test is then performed as follows. […] A second fluorescent reading is taken after 5 minutes incubation. 15 μl of 400 μM glutamate solution is then added to each well (final glutamate concentration 100 μM), and a third reading is taken. The activities of test compounds and cyclothiazide solutions are determined by subtracting the second from the third reading (fluorescence due to addition of glutamate in the presence or absence of test compound or cyclothiazide) and are expressed relative to enhance fluorescence produced by 100 μM cyclothiazide.
# T1 sequence (P48058 21-902): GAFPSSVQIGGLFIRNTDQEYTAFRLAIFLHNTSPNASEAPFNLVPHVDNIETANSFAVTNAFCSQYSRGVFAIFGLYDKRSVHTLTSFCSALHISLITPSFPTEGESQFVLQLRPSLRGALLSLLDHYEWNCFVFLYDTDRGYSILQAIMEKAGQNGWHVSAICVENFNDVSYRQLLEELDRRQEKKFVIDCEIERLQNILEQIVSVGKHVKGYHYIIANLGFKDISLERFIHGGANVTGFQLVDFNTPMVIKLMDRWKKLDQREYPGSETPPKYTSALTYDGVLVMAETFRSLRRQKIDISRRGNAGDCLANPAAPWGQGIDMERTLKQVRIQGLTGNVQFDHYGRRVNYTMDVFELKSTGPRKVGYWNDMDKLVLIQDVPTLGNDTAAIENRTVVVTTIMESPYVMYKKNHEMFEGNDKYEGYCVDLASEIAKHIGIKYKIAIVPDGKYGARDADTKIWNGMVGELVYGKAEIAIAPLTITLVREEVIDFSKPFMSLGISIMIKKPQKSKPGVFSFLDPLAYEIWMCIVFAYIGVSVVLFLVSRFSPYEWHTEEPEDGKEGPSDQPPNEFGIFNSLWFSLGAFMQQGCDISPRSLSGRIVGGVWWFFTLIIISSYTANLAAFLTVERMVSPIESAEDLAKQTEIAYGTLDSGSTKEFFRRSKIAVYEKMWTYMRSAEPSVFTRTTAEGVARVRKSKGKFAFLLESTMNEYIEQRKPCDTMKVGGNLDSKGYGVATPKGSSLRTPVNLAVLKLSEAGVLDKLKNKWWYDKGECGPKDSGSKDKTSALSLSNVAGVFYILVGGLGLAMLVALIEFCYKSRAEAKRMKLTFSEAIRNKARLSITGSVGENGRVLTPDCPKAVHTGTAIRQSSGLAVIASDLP
smiles,measurement,value
NS(=O)(=O)c1cc2c(cc1Cl)NC(C1CC3C=CC1C3)NS2(=O)=O (stereo not shown) [cyclothiazide],potentiation of agonist-induced excitability of human GluR4B receptor,potentiate
